PMC9820430, “New Affordable Methods for Large-Scale Isolation of Major Olive Secoiridoids and Systematic Comparative Study of Their Antiproliferative/Cytotoxic Effect on Multiple Cancer Cell Lines of Different Cancer Origins” (International Journal of Molecular Sciences, 2022)

Legend:
HaCaT cells = tested on: HaCaT cells; parameters: method as in PMID 27878290, PMID 35630786; settings: cited from earlier work
[1] = tested on: three breast cancer cell lines (MDA-MB-231, SK-BR-3 and MCF-7); test: ATP-based luminescence cell viability assay, breast panel; parameters: species or system human; settings: Homo sapiens; MDA-MB-231, SK-BR-3 and MCF-7; 72 h
Method: The antiproliferative/cytotoxic effects of the selected OOPs on each cell line were assessed by measuring the cellular ATP levels after 72 h treatments using an ATP-based luminescence assay. This assay, initially developed as a tumor chemosensitivity assay, has shown considerable promise as a general in vitro toxicity assay due to its high sensitivity that allows the detection of a small number of cells. Consequently, it can be applied to both cancer cell lines and primary tissue cells. […] The EC50 values were calculated by nonlinear regression (curve fit) using a sigmoidal dose–response equation (Figure 2A and Figure S2).
The calculated EC50 values ranged between 9.1–100 μΜ (Table 1). The bioactivity of the oleocanthalic acid (7), studied here for the first time for its antiproliferative/cytotoxic activity, was initially evaluated systematically in the three breast cancer cell lines using a concentration range of 10–100 μM. In all cases, the viability measured was ≥80%, predicting EC50 values > 100 μΜ. […] For this reason, oleocanthalic acid (7) was excluded from the rest of this study.
The OOPs tested in this study were first dissolved in an appropriate DMSO volume such as to prepare a final stock solution of 50 mM, which was further used to prepare various compound concentrations in DMSO-based solutions. The final DMSO concentration in the cell culture was maintained constant in all treated groups of any given experiment and never exceeded the value of 0.2% (v/v). For the treatment experiments, cells were plated in 96-well culture plates, in 100 μL of complete medium at a seeding density of 5000–10,000 cells/well—depending on cells’ size and doubling time—and were allowed to adhere overnight (~16 h). The next day, 150 μL of complete medium was added to each well and the cells were treated with various concentrations of OOPs. Each concentration was tested in triplicate and was repeated 2–3 times. To prepare the final concentration solutions, 0.5 μL of a 500× stock of each tested compound in DMSO was added directly into each well in a final volume of 250 μL culture medium and was gently mixed by pipetting. Control wells were prepared under the same experimental conditions by adding only DMSO at a final concentration of 0.2% (v/v). Compounds were not renewed during the entire period of cell exposure. All cells were cultured at 37 °C in a 5% (v/v) CO2 for 24, 48 or 72 h.
Briefly, after the treatment with OOPs, the adapted medium was removed from the dish wells and the cells were washed twice with medium without FBS. Then, the C-lysis (LT27-076) was diluted in PBS (1:2) and a volume of 50 μL was added to each well. […] Cell viability was quantified by measuring luminescence using a multi-mode microplate reader Safire^2 Tecan (software Magellan V6.00 STD.2PC WIN.20000/XP).

MDA-MB 231 = test: ATP assay under 1% (v/v) O2 versus 20% (v/v) O2, 72 h; type: cell-based, human; settings: 1% (v/v) O2 vs 20% (v/v) O2
Method: The effects of drugs on cancer cell lines are usually tested under atmospheric conditions (20% (v/v) O2). However, the O2 content in tissues (normoxia) and solid tumors (hypoxia) is ≤ 5% (v/v). In some tumors (i.e., pancreatic tumors) the % O2 is even ≤ 1% (v/v). This affects cell metabolism and signaling pathways which depend on the hypoxia-induced Factor 1A (HIF1A) and it could affect the activity of certain drugs. […] The effects of these three OOPs were tested on the MDA-MB 231, SK-BR-3 and MCF-7 breast cancer and on the AGS stomach cancer cell lines.
Figure 6 Effect of O2 concentration on the antiproliferative/cytotoxic effect of OOPs. […] Cell viability was determined on (A) AGS, (B) MDA-MB 231, (C) MCF-7 and (D) SK-BR-3 cell lines using ATP-based luminescence assay. The results presented are from two independent experiments performed in triplicate. Bar graphs represent the mean cell count ± SE in each treatment group normalized to the control group (i.e., cells treated only with 0.2% (v/v) DMSO). * p < 0.05; ** p ≤ 0.01; *** p ≤ 0.001 (t-test) comparing the two different conditions.

Compound	sensitivity of cells to treatment (HaCaT cells)	EC50 [1] [µM]	bioactivity under hypoxia versus atmospheric O2 (MDA-MB 231)
C/C=C(/C=O)[C@@H](CC=O)CC(=O)OCCc1ccc(O)c(O)c1 [compound 2, oleacein]	resistant		
C/C=C(/C=O)[C@@H](CC=O)CC(=O)OCCc1ccc(O)cc1 [compound 1, oleocanthal]	resistant	10.5 to 24.6	
ligstroside aglycone [4a,b]			more resistant
COC(=O)C1=COC(C)[C@@H](C=O)[C@@H]1CC(=O)OCCc1ccc(O)c(O)c1 (mixture of isomers) [3a,b, oleuropein aglycone]		17.7 to 32.2	more resistant
